Results on one molecule are retold here after patent US20220142995A1, “DUAL ATM AND DNA-PK INHIBITORS FOR USE IN ANTI-TUMOR THERAPY” (XRAD Therapeutics, Inc., priority 2019, published 2022).

In this assay the test system is pDNA-PK/DNA-PK in MDA-231 tumors. In words: Pharmacodynamic assay, pDNA-PK/DNA-PK in MDA-231 tumors. In kind it is in vivo, mice. The text has this: Tumor Studies. Female NCr nu/nu mice (Crl:NU(NCr)-Foxn1 nu, Strain 490) were obtained from Charles River at 5-6 weeks of age. All animal procedures used in these studies were approved by the Institutional Animal Care and Use Committee (IACUC) at Duke University.
FADU or MDA-MB-231 cells were harvested during log phase growth for in vivo implantation. The resuspended cells were washed three times in phosphate buffered saline (PBS) before preparing the working dilution in PBS. FADU cells were diluted to 1×10^7 cells/mL and MDA-MB-231 cells were diluted to 5×10^7 cells/mL. Each mouse was injected subcutaneously in the right flank with 100 μL of the cellular suspension. Tumor growth was monitored until the tumors reached a target volume of at least 100 mm^3, at which point mice were randomly stratified into four treatment groups.
The vehicle used in this study was 0.5% (Hydroxypropyl)methyl cellulose (HPMC) and 0.2% Tween80 dissolved in deionized water. The pH of the vehicle was adjusted to 7.0-8.0 and the vehicle was stored at 4° C. On each day of in vivo treatment an appropriate mass of test compound was added to the vehicle at room temperature. The mixture was vortexed as necessary to generate a final concentration of 1.6 mg/mL.
Pharmacodynamic (PD) assays. Tumor studies were performed as follows. Mice bearing FADU or MDA-231 tumors were pre-dosed with vehicle alone or compound 569 alone at 3, 6, and 10 mg/kg. Tumors were then irradiated with 10 Gy 45 min after vehicle or compound 569 administration or left unirradiated (vehicle and compound 569 at 10 mg/kg). Tumors were harvested 1 h post radiation.
Tissue homogenates for pharmacodynamic analyses were collected and processed as follows. Tumor tissues from FADU or MDA-MB-231 tumors were flash frozen in liquid nitrogen and pulverized on dry ice using a tissue pulverizer. A portion of the tumor powder was transferred into a microtube, followed by addition of 500 μL of RIPA buffer [[…], pH 8.0, 150 mM NaCl, 0.1% SDS, 0.5% sodium deoxycholate, 1% IGEPAL® CA-630 (Sigma, 18896)]. To 10 ml of RIPA buffer, 2 tablets each of Protease inhibitor and Phosphatase inhibitor (Roche, #04693159001 & #04906837001), 200 μL of 0.1 M PMSF and 160 μL of Aprotinin, (Sigma, A6279) were added. The suspension was homogenized on ice with a pellet pestle motor (KONTES) and incubated on ice for 30 minutes. Cell lysates were centrifuged at 13,200 rpm for 15 min at 4° C. and supernatants were transferred to a new tube and analyzed for protein concentration with a BCA kit (Pierce, 23227), followed by immunoblotting.

The structures appear in SMILES notation.

Regarding `CC(C)NCCOc1ncc(-c2cc3c4c(cnc3cc2F)N(C)C(=O)C42CCC2)cc1NS(C)(=O)=O` [Compound 569, N-(5-(7′-Fluoro-3′-methyl-2′-oxo-2′,3′-dihydrospiro[cyclobutane-1,1′-pyrrolo[2,3-c]quinolin]-8′-yl)-2-(2-(isopropylamino)ethoxy)pyridin-3-yl)methanesulfonamide], the pDNA-PK/DNA-PK is reported as 0.889 (10 Gy, 3 mg/kg oral, harvested 1 h post radiation); 0.670 (10 Gy, 6 mg/kg oral, harvested 1 h post radiation); 0.454 (10 Gy, 10 mg/kg oral, harvested 1 h post radiation); 0.223 (no radiation, 10 mg/kg oral).
